Test results from US9758480B2, “1-(cycloalkyl-carbonyl)proline derivative” (SUMITOMO DAINIPPON PHARMA CO., LTD., priority 2012, dated 2017).
Structures can show the parent of a compound that is named as a salt.

Columns and labels:
[1] = Ester metabolism stabilization test: human liver stabilization test; type: in vitro ADME; conditions: human liver S9, NADPH, 37° C., 30 minutes
Method: A reaction solution prepared by mixing 5 μL of human liver S9 (manufactured by Xenotech, 20 mg/mL), 20 μL of 500 mmol/L Kpi (pH7.4), 40 μL of 5 mmol/L NADPH (manufactured by Oriental Yeast Co., Ltd.) aqueous solution, and 133 μL of ion exchange water was added to 2 μL of a DMSO solution containing 100 μmol/L test substance, and the thus obtained mixture was then incubated at 37° C. for 30 minutes. After completion of the incubation, 600 μL of acetonitrile was added to the reaction solution, so that the metabolic reaction was terminated. The residual percentage of the test substance was measured using LC (LC-20A manufactured by Shimadzu Corporation) and -MS (API4000 manufactured by AB Sciex). • (2) Stabilization in Human Plasma Test

[2] = biological target: human FXIa (Homo sapiens (Human), UniProt P03951); assay: In vitro activated factor XI (FXIa) inhibition test; type: biochemical; conditions: 0.35 μg/mL human FXIa, substrate S-2366 300 μmol/L, 37° C., 10 minutes, OD 405 nm; read-out: FXIa inhibitory activity IC50
human FXIa, sequence (P03951 388-625): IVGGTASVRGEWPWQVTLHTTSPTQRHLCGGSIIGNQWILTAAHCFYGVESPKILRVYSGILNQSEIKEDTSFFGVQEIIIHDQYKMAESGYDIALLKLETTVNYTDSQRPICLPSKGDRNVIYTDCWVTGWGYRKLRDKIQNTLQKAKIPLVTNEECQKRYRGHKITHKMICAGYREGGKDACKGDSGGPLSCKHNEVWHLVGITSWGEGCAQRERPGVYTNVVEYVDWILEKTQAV
human FXIa, sequence (P03951 19-387 partner): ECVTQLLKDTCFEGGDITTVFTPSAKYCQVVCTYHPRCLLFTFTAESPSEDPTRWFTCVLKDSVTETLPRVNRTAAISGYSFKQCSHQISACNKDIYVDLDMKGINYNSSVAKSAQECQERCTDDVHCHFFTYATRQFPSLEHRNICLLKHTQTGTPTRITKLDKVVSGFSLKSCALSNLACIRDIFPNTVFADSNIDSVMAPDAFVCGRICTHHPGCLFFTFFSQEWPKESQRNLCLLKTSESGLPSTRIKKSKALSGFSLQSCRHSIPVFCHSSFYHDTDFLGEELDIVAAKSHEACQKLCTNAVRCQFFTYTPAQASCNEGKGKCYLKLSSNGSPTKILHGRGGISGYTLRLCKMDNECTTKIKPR
Method: To the substrate, S-2366 (pyroGlu-Pro-Arg-pNA.HCl) was added to a final concentration of 300 μmol/L. After the reaction had progressed, the absorbance at OD 405 nm was measured.

[3] = system: rabbit model with venous thrombus; assay: Rabbit in vivo antithrombotic action evaluation test (venous thrombus model), thrombus weight; conditions: i.v.
From the text: A rabbit model with venous thrombus was produced by modifying the report of Wienen et al. (Wienen W. et al., J. Thromb. Haemost. 5:1237-1242 (2007)). A male rabbit (JW, 2-4 kg) was narcotized by inhalation of isoflurane (ISOFLU®, manufactured by DS Pharma Animal Health) (inductive anesthesia: 4%, continuous anesthesia: 1.5% to 2.5%). For intravenous administration of a test agent and blood collection, catheters were inserted into the left femoral vein and the left femoral artery. The left external jugular vein was exposed (2 cm) from a branch of the facial vein, the microvascular branch was then ligated, and a catheter was then inserted into the posterior facial vein. The external jugular vein (2 cm) exposed from each of an anterior facial vein branch and a facial vein branch was ligated with an artery clamp, and blood was then removed from a catheter left in the posterior facial vein. Blood in the blood vessel was washed with a normal saline, and 0.5% polidocanol (manufactured by Sigma) was injected into the blood vessel. It was then left for 5 minutes, so that the occurrence of a disorder in vascular endothelium was provoked. Thereafter, 0.5% polidocanol was removed, the inside of the blood vessel was then washed with a normal saline, and the artery clamp was then removed. The external jugular vein (2 cm) exposed from the facial vein branch, together with an injection needle 21G (manufactured by Terumo), was ligated with a silk thread, so that the inner diameter of the blood vessel was reduced to 0.8 mm. Twenty-five minutes after recirculation of the blood flow, the external jugular vein (2 cm) exposed from the facial vein branch was excised, and the wet weight and dry weight of a thrombus formed in the blood vessel were measured. A test agent or a vehicle was administered to the rabbit 2 minutes before recirculation of the blood flow.

[4] = system: endogenous coagulation pathway; assay: Activated partial thromboplastin time (aPTT) of blood sample in rabbit antithrombotic test; type: in vivo; conditions: i.v.
Method: In order to measure the activated partial thromboplastin time (aPTT) of the blood sample, which was to be used as an indicator of an endogenous coagulation pathway, 2 minutes after the administration of the test agent or the vehicle, blood was collected, and plasma was then prepared using 3.2% sodium citrate. The prepared plasma was incubated at 37° C. for 7 minutes, and an STA reagent Cephascreen (used for aPTT measurement; manufactured by Roche Diagnostics) was added in an equal amount to the resulting plasma, and the obtained mixture was further incubated for 3 minutes. Thereafter, STA calcium chloride (manufactured by Roche Diagnostics) was added in an equal amount to the resultant, and the time required until coagulation was then measured.

[5] = Ester metabolism stabilization test: stabilization in human plasma test; type: in vitro ADME; conditions: 37° C., 30 minutes
Method: 198 μL of human plasma (manufactured by Cosmo Bio) was added to 2 μL of a DMSO solution containing 100 μmol/L test substance, and the obtained mixture was then incubated at 37° C. for 30 minutes. After completion of the incubation, 600 μL of acetonitrile was added to the reaction solution, so that the metabolic reaction was terminated. The residual percentage of the test substance was measured using LC (LC-20A manufactured by Shimadzu Corporation) and -MS (API4000 manufactured by AB Sciex).

Residual percentage (%) Human liver S9 [1] [%]	Compound	IC50 [2] [nM]	further results
–	N[C@H](CF)[C@H]1CC[C@H](C(=O)N2CC[C@H](c3ccc(F)cc3)[C@H]2C(=O)Nc2ccc3[nH]c(C(=O)O)cc3c2)CC1 [Example 178]	33	–
–	Cc1c(C(=O)O)[nH]c2ccc(NC(=O)[C@@H]3[C@H](C4CCCCC4)CCN3C(=O)[C@H]3CC[C@H]([C@H](N)CF)CC3)cc12 [Example 113]	145	–
47	CC(C)OC(=O)OC(C)OC(=O)c1cc2cc(NC(=O)[C@@H]3[C@H](C4CCCCC4)CCN3C(=O)[C@H]3CC[C@H]([C@H](N)CF)CC3)ccc2[nH]1 (stereo partly shown) [Example 128]	–	–
4.9	CC(OC(=O)OC1CCCCC1)OC(=O)c1cc2cc(NC(=O)[C@@H]3[C@@H](c4ccccc4)CCN3C(=O)[C@H]3CC[C@H]([C@H](N)CF)CC3)ccc2[nH]1 (stereo partly shown) [Example 120]	–	–
–	N[C@H](CF)[C@H]1CC[C@H](C(=O)N2CCC(C3CCCCC3)[C@H]2C(=O)Nc2ccc3oc(C(=O)O)cc3c2)CC1 (single isomer, unassigned) [Example 53]	–	Thrombus (% inhibition) ([3]; dose 0.1 mg/kg): 25 % inhibition; Thrombus (% inhibition) ([3]; dose 0.3 mg/kg): 56 % inhibition; Thrombus (% inhibition) ([3]; dose 1.0 mg/kg): 79 % inhibition; Thrombus (% inhibition) ([3]; dose 3.0 mg/kg): 80 % inhibition; aPTT (% vehicle) ([4]; dose 0.1 mg/kg): 103 % vehicle; aPTT (% vehicle) ([4]; dose 0.3 mg/kg): 117 % vehicle; aPTT (% vehicle) ([4]; dose 1.0 mg/kg): 140 % vehicle; aPTT (% vehicle) ([4]; dose 3.0 mg/kg): 166 % vehicle
–	COc1ccc([C@H]2CCN(C(=O)[C@H]3CC[C@H]([C@H](N)CF)CC3)[C@@H]2C(=O)Nc2ccc3[nH]c(C(=O)O)cc3c2)cc1 [Example 170]	76	–
3.5	CC(C)C(=O)O[C@@H](C)OC(=O)N[C@H](CF)[C@H]1CC[C@H](C(=O)N2CC[C@@H](C3CCCCC3)[C@H]2C(=O)Nc2ccc(-c3nnn[nH]3)cc2)CC1 [Example 205, (1R)-1-({[(1S)-1-(trans-4-{[(2S,3S)-3-Cyclohexyl-2-{[4-(1H-tetrazol-5-yl)phenyl]carbamoyl}pyrrolidin-1-yl]carbonyl}cyclohexyl)-2-fluoroethyl]carbamoyl}oxy)ethyl 2-methylpropanoate]	–	Residual percentage (%) Human plasma [5]: 60%
–	NC[C@H]1CC[C@H](C(=O)N2CCC(c3ccccc3)[C@H]2C(=O)Nc2ccc3[nH]c(C(=O)O)cc3c2)CC1 (stereo partly shown) [Example 23]	9	–
–	N[C@H](CF)[C@H]1CC[C@H](C(=O)N2CC[C@@H](c3ccccc3)[C@H]2C(=O)Nc2ccc3[nH]c(C(=O)O)c(Cl)c3c2)CC1 [Example 186]	60	–
5.6	CCC(=O)OC(OC(=O)c1cc2cc(NC(=O)[C@@H]3[C@@H](c4ccccc4)CCN3C(=O)[C@H]3CC[C@H]([C@H](N)CF)CC3)ccc2[nH]1)C(C)C (stereo partly shown) [Example 125]	–	–
–	N[C@H](CF)[C@H]1CC[C@H](C(=O)N2CC[C@@H](C3CCCCC3)[C@H]2C(=O)Nc2ccc3[nH]c(C(=O)O)cc3c2)CC1 [Example 99]	6	–
–	CN(C(=O)C1C(c2ccccc2)CCN1C(=O)[C@H]1CC[C@H](CN)CC1)c1ccc2[nH]c(C(=O)O)cc2c1 (stereo partly drawn) [Example 5, 5-{cis-1-[trans-4-(Aminomethyl)cyclohexanecarbonyl]-N-methyl-3-phenylpyrrolidine-2-carboxamide}-1H-indole-2-carboxylic acid trifluoroacetate]	125	–
–	NC(CF)[C@H]1CC[C@H](C(=O)N2CC[C@@H](c3ccc(F)cc3)[C@H]2C(=O)Nc2ccc3[nH]c(C(=O)O)cc3c2)CC1 (stereo partly shown) [Example 38]	30	–
5.8	COCCCOC(=O)c1cc2cc(NC(=O)[C@@H]3[C@H](C4CCCCC4)CCN3C(=O)[C@H]3CC[C@H]([C@H](N)CF)CC3)ccc2o1 [Example 82]	–	–

Compound	Residual percentage (%) Human liver S9 [1] [%]	IC50 [2] [nM]	further results
Cc1oc(=O)oc1COC(=O)c1cc2cc(NC(=O)[C@@H]3[C@@H](c4ccccc4)CCN3C(=O)[C@H]3CC[C@H]([C@H](N)CF)CC3)ccc2[nH]1 [Example 171]	18	–	–
N[C@H](CF)[C@H]1CC[C@H](C(=O)N2CC[C@@H](C3CCCCC3)[C@H]2C(=O)Nc2ccc3oc(C(=O)OCC4CCOCC4)cc3c2)CC1 [Example 141]	17	–	–
COC1CCC([C@@H]2CCN(C(=O)[C@H]3CC[C@H]([C@H](N)CF)CC3)[C@@H]2C(=O)Nc2ccc3oc(C(=O)OCC(C)C)cc3c2)CC1 (stereo partly shown) [Example 201]	45	–	–
